# Target: PIK3CG (human) (UniProt P48736)
# Assay: Assessment of PIK3CG Kinase Activity
# PIK3CG (human), sequence (P48736 whole entry, looked up): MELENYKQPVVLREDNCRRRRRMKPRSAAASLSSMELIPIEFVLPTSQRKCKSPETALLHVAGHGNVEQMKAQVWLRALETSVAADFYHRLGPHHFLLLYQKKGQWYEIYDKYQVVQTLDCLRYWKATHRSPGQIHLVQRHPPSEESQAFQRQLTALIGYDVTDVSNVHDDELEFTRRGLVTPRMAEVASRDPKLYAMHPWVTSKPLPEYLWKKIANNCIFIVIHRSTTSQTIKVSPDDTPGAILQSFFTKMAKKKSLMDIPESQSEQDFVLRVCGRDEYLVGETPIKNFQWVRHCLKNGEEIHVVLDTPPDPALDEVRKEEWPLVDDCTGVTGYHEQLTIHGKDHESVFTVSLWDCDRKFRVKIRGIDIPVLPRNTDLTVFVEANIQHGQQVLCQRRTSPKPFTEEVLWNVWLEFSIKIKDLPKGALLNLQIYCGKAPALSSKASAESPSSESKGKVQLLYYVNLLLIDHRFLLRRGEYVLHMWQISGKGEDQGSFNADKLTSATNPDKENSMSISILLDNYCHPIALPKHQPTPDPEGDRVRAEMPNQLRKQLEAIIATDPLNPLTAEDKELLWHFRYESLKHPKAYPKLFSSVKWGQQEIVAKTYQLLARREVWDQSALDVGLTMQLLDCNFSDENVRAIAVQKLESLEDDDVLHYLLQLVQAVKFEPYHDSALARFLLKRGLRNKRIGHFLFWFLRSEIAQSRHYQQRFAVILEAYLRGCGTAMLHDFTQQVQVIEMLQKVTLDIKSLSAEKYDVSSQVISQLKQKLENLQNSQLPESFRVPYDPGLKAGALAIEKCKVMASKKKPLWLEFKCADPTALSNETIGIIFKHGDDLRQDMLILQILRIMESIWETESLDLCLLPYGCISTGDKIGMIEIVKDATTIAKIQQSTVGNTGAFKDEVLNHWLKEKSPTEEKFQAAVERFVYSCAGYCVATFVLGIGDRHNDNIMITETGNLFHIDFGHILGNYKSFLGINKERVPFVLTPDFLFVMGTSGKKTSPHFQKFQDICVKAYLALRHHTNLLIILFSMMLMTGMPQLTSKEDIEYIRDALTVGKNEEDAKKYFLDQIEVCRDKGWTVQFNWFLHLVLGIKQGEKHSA
row,Compound,IC50
1,CC(=O)Nc1nc2c(s1)-c1c(cnn1C(=O)C1CC1)CC2,< 0.8 µM
2,COCc1nn(-c2ccccc2C(F)(F)F)c2c1CCc1nc(NC(C)=O)sc1-2,< 0.8 µM
3,CC(=O)Nc1nc2c(s1)-c1c(cnn1-c1ccc(C(=O)NCCC3CCCN3C)cc1)CC2 (configuration not stated),< 0.8 µM
4,CC(=O)Nc1nc2c(s1)-c1c(cnn1-c1ccc(CC(=O)N3CCCC(O)C3)cc1)CC2 (configuration not stated),< 0.8 µM
5,CC(=O)Nc1nc2c(s1)-c1c(cnn1-c1ccc(C(=O)NC(CN3CCOCC3)CN3CCOCC3)cc1)CC2,< 0.8 µM
6,CC(=O)Nc1nc2c(s1)-c1c(cnn1-c1ccccc1C)C2,< 0.8 µM
7,CC(=O)Nc1nc2c(s1)-c1nc(Cc3c(Cl)cccc3Cl)ncc1CC2,< 0.8 µM
8,CC(=O)Nc1nc2c(s1)-c1c(cnn1-c1ccc(C(=O)NCc3cccnc3)cc1)CC2,< 0.8 µM
9,CCC(=O)Nc1nc2c(s1)-c1c(cnn1-c1ccccc1)CC2,< 0.8 µM
10,CC(=O)Nc1nc2c(s1)-c1c(cnn1-c1ccc(C#N)cc1)CC2,< 0.8 µM
11,CC(=O)Nc1nc2c(s1)-c1c(cnn1-c1ccc(C(=O)N[C@H](CCC(=O)O)C(N)=O)cc1Cl)CC2,< 0.8 µM
12,CC(=O)Nc1nc2c(s1)-c1c(cnn1-c1ccc(C(=O)NCCCCCCNC(=O)Cc3ccccc3)cc1)CC2,< 0.8 µM
13,CC(=O)Nc1nc2c(s1)-c1c(cnn1-c1ccc(C(=O)N[C@H]3CC[C@H](N4CCCC4)CC3)cc1)CC2,< 0.8 µM
14,CC(=O)Nc1nc2c(s1)-c1c(cnn1-c1ccc(C(=O)O)cc1)CC2,< 0.8 µM
15,CCN(CCO)C(=O)c1ccc(-n2ncc3c2-c2sc(NC(C)=O)nc2CC3)cc1,< 0.8 µM
16,CC(=O)Nc1nc2c(s1)-c1c(cnn1-c1ccc(CC(=O)N3CCCC(C(N)=O)C3)cc1)CC2 (configuration not stated),< 0.8 µM
17,CC(=O)Nc1nc2c(s1)-c1c(c(C(C)C)nn1-c1ccccc1C(F)(F)F)CC2,< 0.8 µM
18,CC(=O)Nc1nc2c(s1)-c1c(cnn1-c1ccc(CC(=O)N3CCNC(=O)C3)cc1)CC2,< 0.8 µM
19,CC(=O)Nc1nc2c(s1)-c1nc(-c3ccc(C(N)=O)cc3)ncc1CC2,< 0.8 µM
20,CC(=O)Nc1nc2c(s1)-c1c(cnn1-c1cc(F)ccc1C)CC2,< 0.8 µM
21,CCN(CC)C(=O)C1CCCCN1C(=O)c1ccc(-n2ncc3c2-c2sc(NC(C)=O)nc2CC3)cc1 (configuration not stated),< 0.8 µM
22,CC(=O)Nc1nc2c(s1)-c1c(cnn1-c1ccccc1Cl)C2,< 0.8 µM

row,Compound,IC50
1,CC(=O)Nc1nc2c(s1)-c1c(cnn1-c1ccc(C(=O)N[C@H](CC(=O)O)C(N)=O)cc1Cl)CC2,< 0.8 µM
2,CC(=O)Nc1nc2c(s1)-c1c(cnn1-c1ccc(CC(=O)N(C)Cc3ccccn3)cc1)CC2,< 0.8 µM
3,CC(=O)Nc1nc2c(s1)-c1c(cnn1-c1ccc(CC(=O)NCCCN3CCOCC3)cc1)CC2,< 0.8 µM
4,CC(=O)Nc1nc2c(s1)-c1nc(-c3c(Cl)cccc3Cl)ncc1CC2,< 0.8 µM
5,CC(=O)Nc1nc2c(s1)-c1c(c(C(C)C)nn1-c1ccccc1)CC2,< 0.8 µM
6,CC(=O)Nc1nc2c(s1)-c1c(cnn1-c1ccc(C(=O)N[C@H](Cc3ccc(O)cc3)C(N)=O)cc1)CC2,< 0.8 µM
7,CC(=O)Nc1nc2c(s1)-c1c(cnn1-c1ccc(C(=O)NCCN3CCOCC3)cc1)CC2,< 0.8 µM
8,CC(=O)Nc1nc2c(s1)-c1nc(-n3cccn3)ncc1CC2,< 0.8 µM
9,CC(=O)Nc1nc2c(s1)-c1c(c(-c3ccco3)nn1-c1ccccc1C(F)(F)F)CC2,< 0.8 µM
10,CC(=O)Nc1nc2c(s1)-c1nc(CCc3ccccc3)ncc1CC2,< 0.8 µM
11,CC(=O)Nc1nc2c(s1)-c1nc(-c3ccccc3Cl)ncc1CC2,< 0.8 µM
12,CC(=O)Nc1nc2c(s1)-c1c(c(C(=O)N(C)CCO)nn1-c1ccccc1)CC2,< 0.8 µM
13,CC(=O)Nc1nc2c(s1)-c1c(cnn1-c1ccc(C(=O)Nc3ccc(N4CCN(C)CC4)cc3)cc1Cl)CC2,< 0.8 µM
14,CC(=O)Nc1nc2c(s1)-c1c(cnn1-c1ccc(C(=O)NCCCC(N)=O)cc1Cl)CC2,< 0.8 µM
15,O=C(CO)Nc1nc2c(s1)-c1c(cnn1-c1ccccc1)CC2,< 0.8 µM
16,COCc1nn(-c2ccc(C(=O)N[C@H]3CC[C@H](N4CCCC4)CC3)cc2Cl)c2c1CCc1nc(NC(C)=O)sc1-2,< 0.8 µM
17,CC(=O)Nc1nc2c(s1)-c1nn(-c3ccc(C(=O)NC4CCN(C5CCCC5)CC4)cc3Cl)c(-c3ccco3)c1CC2,< 0.8 µM
18,CC(=O)Nc1nc2c(s1)-c1c(cnn1-c1ccc(C(=O)N[C@H]3CCc4nc(N)sc4C3)cc1Cl)CC2,< 0.8 µM
19,CCN(CCO)C(=O)c1nn(-c2ccccc2)c2c1CCc1nc(NC(C)=O)sc1-2,< 0.8 µM
20,CC(=O)Nc1nc2c(s1)-c1c(cnn1-c1cccc(F)c1)CC2,< 0.8 µM
21,CC(=O)Nc1nc2c(s1)-c1c(cnn1-c1ccc3cn[nH]c3c1)CC2,< 0.8 µM
22,CC(=O)Nc1nc2c(s1)-c1c(cnn1-c1ccc(C(=O)N[C@@H](C(N)=O)C(C)C)cc1Cl)CC2,< 0.8 µM

row,Compound,IC50
1,CC(=O)Nc1ccc2c(c1)-c1sc(NC(C)=O)nc1CC2,< 0.8 µM
2,CC(=O)Nc1nc2c(s1)-c1cc(NC(=O)C(C)C)ccc1CC2,< 0.8 µM
3,CC(=O)Nc1nc2c(s1)-c1c(cnn1-c1ccc(C(=O)N[C@H](C(N)=O)[C@@H](C)O)cc1Cl)CC2,< 0.8 µM
4,CC(=O)Nc1nc2c(s1)-c1nc(N(C)C)ncc1CC2,< 0.8 µM
5,CC(=O)Nc1nc2c(s1)-c1c(cnn1-c1ccccc1Br)C2,< 0.8 µM
6,CC(=O)Nc1nc2c(s1)-c1c(c(C(C)C)nn1-c1ccc(C(=O)NCc3ccncc3)cc1Cl)CC2,< 0.8 µM
7,CC(=O)Nc1nc2c(s1)-c1c(cnn1-c1ccc(C(=O)N3CCN(NC(=O)c4ccc(F)cc4)CC3)cc1)CC2,< 0.8 µM
8,CC(=O)Nc1nc2c(s1)-c1c(cnn1-c1ccc(C(=O)N3CCC(N)CC3)cc1)CC2,< 0.8 µM
9,CN(C)C(=O)Nc1nc2c(s1)-c1c(cnn1-c1ccccc1)C2,< 0.8 µM
10,CC(=O)Nc1nc2c(s1)-c1c(cnn1-c1ccc(C(=O)N[C@H]3CC[C@H](N4CCN(c5ccccc5)CC4)CC3)cc1)CC2,< 0.8 µM
11,CC(=O)Nc1nc2c(s1)-c1c(cnn1-c1ccc(C(=O)N3CCOCC3)cc1Cl)CC2,< 0.8 µM
12,CC(=O)Nc1nc2c(s1)-c1c(cnn1-c1ccc(C(=O)N[C@@H](C(N)=O)[C@H](C)O)cc1Cl)CC2,< 0.8 µM
13,CC(=O)Nc1nc2c(s1)-c1c(cnn1-c1ccc(C(=O)N[C@H]3CC[C@H](N4CCN(C)CC4)CC3)cc1)CC2,< 0.8 µM
14,CC(=O)Nc1nc2c(s1)-c1nc(N(C)CCN3CCN(C)CC3)ncc1CC2,< 0.8 µM
15,O=C(NCCn1ccnc1)Nc1nc2c(s1)-c1c(cnn1-c1ccccc1Cl)C2,< 0.8 µM
16,CC=Cn1cc2c(n1)-c1sc(NC(C)=O)nc1CC2,< 0.8 µM
17,CN(C)c1ncc2c(n1)-c1sc(NC(N)=O)nc1CC2,< 0.8 µM
18,CC(=O)Nc1nc2c(s1)-c1c(cnn1-c1ccc(S(=O)(=O)N(C)C)cc1)CC2,< 0.8 µM
19,CC(=O)Nc1nc2c(s1)-c1c(c(-c3ccco3)nn1-c1cccc(Cl)c1)CC2,< 0.8 µM
20,CNC(=O)Nc1nc2c(s1)-c1nc(N(C)C)ncc1CC2,< 0.8 µM
21,CC(=O)Nc1nc2c(s1)-c1nc(-c3cccc(C)c3)ncc1CC2,< 0.8 µM

# Now from value to compound:
row,IC50,Compound
1,< 0.8 µM,CC(=O)Nc1nc2c(s1)-c1c(cnn1-c1ccc(C(=O)N[C@@H](Cc3cccc(Cl)c3)C(N)=O)cc1Cl)CC2
2,< 0.8 µM,CCN1CCCC(NC(=O)c2ccc(-n3ncc4c3-c3sc(NC(C)=O)nc3CC4)cc2)C1 (configuration not stated)
3,< 0.8 µM,CC(=O)Nc1nc2c(s1)-c1c(cnn1C(=O)C(C)C)CC2
4,< 0.8 µM,CC(=O)Nc1nc2c(s1)-c1c(c(C)nn1-c1ccccc1)CC2
5,< 0.8 µM,CC(=O)Nc1nc2c(s1)-c1c(c(C(C)C)nn1-c1ccccc1Cl)CC2
6,< 0.8 µM,CC(=O)Nc1nc2c(s1)-c1c(cnn1-c1ccc(C(=O)N(C)CC(=O)N3CCOCC3)cc1)CC2
7,< 0.8 µM,CC(=O)Nc1nc2c(s1)-c1c(cnn1-c1c(Cl)cccc1Cl)C2
8,< 0.8 µM,CNS(=O)(=O)c1ccc(-n2ncc3c2-c2sc(NC(C)=O)nc2CC3)cc1
9,< 0.8 µM,COCc1nn(-c2ccc(C(=O)N[C@H]3CC[C@@H](N4CCCC4)CC3)cc2Cl)c2c1CCc1nc(NC(C)=O)sc1-2
10,< 0.8 µM,CC(=O)Nc1nc2c(s1)-c1c(cnn1-c1ccc(C(=O)N3CCC[C@@H]3C(N)=O)cc1)CC2
11,< 0.8 µM,CC(=O)Nc1nc2c(s1)-c1c(cnn1-c1ccc(C(=O)N3CCN(C)CC3)cc1)CC2
12,< 0.8 µM,COc1ccccc1-n1nc(-c2ccccc2)c2c1-c1sc(NC(C)=O)nc1CC2
13,< 0.8 µM,CC(=O)Nc1nc2c(s1)-c1c(cnn1-c1ccc(C(=O)NCc3nc4ccccc4n3C)cc1)CC2
14,< 0.8 µM,CC(=O)Nc1nc2c(s1)-c1c(c(-c3ccco3)nn1-c1ccc(Br)cc1C(F)(F)F)CC2
15,< 0.8 µM,CC(=O)Nc1nc2c(s1)-c1c(cnn1-c1ccc(C(=O)NCCc3cccnc3)cc1)CC2
16,< 0.8 µM,CC(=O)Nc1nc2c(s1)-c1c(cnn1-c1ncccn1)CC2

row,IC50,Compound
1,< 0.8 µM,C#CCN(C)C(=O)c1ccc(-n2ncc3c2-c2sc(NC(C)=O)nc2CC3)cc1
2,< 0.8 µM,CN(C)CCNC(=O)Nc1nc2c(s1)-c1c(cnn1-c1ccccc1)CC2
3,< 0.8 µM,COCc1nn(-c2ccc(C(=O)N(C)Cc3ccncc3)cc2Cl)c2c1CCc1nc(NC(C)=O)sc1-2
4,< 0.8 µM,CC(=O)Nc1nc2c(s1)-c1c(cnn1-c1ccc(C(=O)N[C@@H](Cc3ccc(O)cc3)C(N)=O)cc1Cl)CC2
5,< 0.8 µM,CC(=O)Nc1nc2c(s1)-c1c(cnn1-c1ccc(C(=O)NC3CCCC3)cc1)CC2
6,< 0.8 µM,NNC(=O)Nc1nc2c(s1)-c1c(cnn1-c1ccccc1)CC2
7,< 0.8 µM,CC(=O)Nc1nc2c(s1)-c1c(cnn1-c1ccc3ccccc3c1)CC2
8,< 0.8 µM,CC(=O)Nc1nc2c(s1)-c1c(cnn1-c1cc(Cl)ccc1Cl)CC2
9,< 0.8 µM,CC(=O)Nc1nc2c(s1)-c1c(cnn1-c1ccccc1C(F)(F)F)C2
10,< 0.8 µM,CC(=O)Nc1nc2c(s1)-c1c(c([C@H]3CCCO3)nn1-c1ccccc1Cl)CC2
11,< 0.8 µM,Cc1ccccc1-c1ncc2c(n1)-c1sc(NC(N)=O)nc1CC2
12,< 0.8 µM,CC(=O)Nc1nc2c(s1)-c1c(c(C(C)C)nn1-c1ccc(C(=O)N[C@H]3CC[C@@H](N4CCCC4)CC3)cc1Cl)CC2
13,< 0.8 µM,CC(=O)Nc1nc2c(s1)-c1nc(C(F)(F)F)ncc1CC2
14,< 0.8 µM,CC(=O)Nc1nc2c(s1)-c1c(cnn1-c1ccc(CC(=O)NC3CCS(=O)(=O)C3)cc1)CC2 (configuration not stated)
15,< 0.8 µM,CC(=O)Nc1nc2c(s1)-c1c(cnn1-c1ccc(CC(=O)N3CCN(c4ccccn4)CC3)cc1)CC2
16,< 0.8 µM,CC(=O)Nc1nc2c(s1)-c1c(c(C(=O)NCCO)nn1-c1ccccc1)CC2

# From the Kinase Knowledgebase extract (Sharma et al. 2016)
